For three compounds, EC50 and IC50 results are on record in ChEMBL document CHEMBL1150998, “Enzymatic resolution of AMPA by use of -chymotrypsin” (Bioorg Med Chem Lett, 1993).

Test [1] is filed under the species Rattus norvegicus. As to the kind of experiment: Tested in vitro for the dose response curve in rat cortical wedge preparation.
Test [2] has as its target Glutamate receptor ionotropic, AMPA (Rattus norvegicus, UniProt P19490+P19491+P19492+P19493). Kind of test: Tested for the inhibitory activity of against Ionotropic glutamate receptor AMPA by [3H]- AMPA binding assay. The class given is protein-complex assay.

Each structure is given as a SMILES string. Bounds are passed on as bounds.

Usually EC50 stands for the concentration needed to bring the measured effect to its halfway point. Lower therefore signals a more potent agent. The IC50 is the midpoint of a concentration-inhibition curve. High values mean a need for much substance, low ones inhibition by little substance.

Regarding `Cc1onc(O)c1CC(N)C(=O)O` (single isomer, unassigned; form 1), in test [1], the midpoint of the response, the EC50, lay at 3.8 µM. In turn, `Cc1onc(O)c1CC(N)C(=O)O` (single isomer, unassigned; form 2) came in with an EC50 in test [1] of 580 µM.

In turn, `CCOC(=O)C(N)Cc1c(OCC)noc1C` (stereo not drawn) showed an IC50 in test [2] of over 100 µM.
